Results from patent publication US12577241B2, “Polycyclic pyridopyrazine derivative” (Shionogi & Co., Ltd., priority 2019, dated 2026).

tested on: HIV; assay: Test Example 1B: Anti-HIV activity (MT-4 cells, MTT); assay type: cell-based; conditions: Human immunodeficiency virus 1, MT4, 96 h, 4 days culture, MTT absorbance, read-out: EC50 (50% HIV inhibitory concentration)
Method: Test Example 1B: Anti-HIV Activity
Serial dilutions of a test sample were prepared in a 96-well microplate (50 μL/well). 2.5×10^5 cells/mL of a MT-4 cell suspension was dispensed at 100 μL/well to the plate containing the test sample. Then, an HIV virus solution was dispensed at 50 μL/well. The plate was mixed with a plate mixer and cultured for 4 days in a CO2 incubator. An MTT (3-(4,5-dimethylthiazol-2-yl)-2,5-diphenyltetrazolium bromide) solution was dispensed at 30 μL/well. The plate was reacted for 1 hour in a CO2 incubator. 150 μL of the supernatant was removed from each well so as not to take up the cells. 150 μL of a cell lysis solution was added to each well and well mixed with a plate mixer until the cells were completely lysed. The absorbance of the mixed plate was measured at two wavelengths of 560 nm and 690 nm using a microplate reader. A 50% HIV inhibitory concentration (EC50) was determined from a concentration-dependent curve using the following 4 parameter logistic curve fitting model. y=A+((B−A)/(1+(C/x)^D)) • A=minimum rate of inhibition (negative control, 0%) • B=maximum rate of inhibition (positive control, 100%) • C=compound concentration at an inflection point • D=slope coefficient • x=compound concentration • y=rate of inhibition (%) (Results)

`CCN1C(=O)c2c(O)c(=O)c(C(=O)NCc3cccc(Cl)c3F)cn2[C@H]2Cc3ccccc3[C@H]21` [Compound I-033] and `CCN1C(=O)c2c(O)c(=O)c(C(=O)NCc3nccc(Cl)c3F)cn2[C@H]2Cc3ccccc3[C@H]21` [Compound I-034] are within 1.5-fold of each other in EC50: 9.7 nM for the first, 12 nM for the second.

First: CCN1C(=O)c2c(O)c(=O)c(C(=O)NCc3ccc(F)cc3F)cn2[C@H]2Cc3ccccc3[C@H]21 [Compound I-035]
Second: CCN1C(=O)c2c(O)c(=O)c(C(=O)NCc3ccc(F)cc3F)cn2[C@H]2[C@@H]1CCC2(F)F [Compound I-037]
The EC50 of the first is 1.5-fold higher: 5.4 nM for the first, 3.6 nM for the second.

`CCN1C(=O)c2c(O)c(=O)c(C(=O)NCc3cccc(Cl)c3F)cn2[C@H]2CCC3(CC3)C[C@H]21` [Compound I-036] and `CCN1C(=O)c2c(O)c(=O)c(C(=O)NCc3cccc(Cl)c3F)cn2[C@H]2[C@@H]1[C@@H]1CC[C@H]2O1` [Compound I-043] are within 1.5-fold of each other in EC50: 7.1 nM for the first, 6.2 nM for the second.

Compared with `CCN1C(=O)c2c(O)c(=O)c(C(=O)NCc3ccc(F)cc3F)cn2[C@@H]2[C@H]1CCC2(F)F` [Compound I-038], `CCN1C(=O)c2c(O)c(=O)c(C(=O)NCc3nccc(Cl)c3F)cn2[C@H]2[C@@H]1CCC2(F)F` [Compound I-039] is 2.3-fold higher in EC50: 4.3 nM for the first, 9.8 nM for the second.

`CCN1C(=O)c2c(O)c(=O)c(C(=O)NCc3nccc(Cl)c3F)cn2[C@@H]2[C@H]1CCC2(F)F` [Compound I-040] and `CCN1C(=O)c2c(O)c(=O)c(C(=O)NCc3nccc(Cl)c3F)cn2[C@@H]2CC(F)(F)CC[C@@H]21` [Compound I-041] are within 1.5-fold of each other in EC50: 13 nM for the first, 12 nM for the second.

`CCN1C(=O)c2c(O)c(=O)c(C(=O)NCc3nccc(Cl)c3F)cn2[C@H]2CC(F)(F)CC[C@H]21` [Compound I-042] and `CCN1C(=O)c2c(O)c(=O)c(C(=O)NCc3cccc(Cl)c3F)cn2[C@@H]2[C@H]1[C@H]1CC[C@@H]2O1` [Compound I-044] are within 1.5-fold of each other in EC50: 7.9 nM for the first, 7 nM for the second.

tested on: HIV mutant strains (E92Q/E138T/G140S/Q148H); assay: Test Example 2: Resistance evaluation test (HeLa-CD4 cells, wild and mutant strain); assay type: cell-based; conditions: 3 days
Method: Test Example 2: Resistance Evaluation Test
Serial dilutions of a test sample were prepared in a 96-well microplate (50 μL/well). 2.5×10^5 cells/mL of a HeLa-CD4 cell suspension was dispensed at 100 μL/well to the plate containing the test sample. Then, an HIV virus solution (wild strain and mutant strain) was dispensed at 50 μL/well. The plate was mixed with a plate mixer and cultured for 3 days in a CO2 incubator. The culture supernatant in each well was removed by suction. A cell lysis buffer was dispensed at 100 μL/well, and the plate was frozen in a freezer (−80° C.). The plate frozen in a freezer was thawed at room temperature, then mixed with a plate mixer, and centrifuged at 1,200 rpm for 5 minutes. Beta-Glo Reagent was dispensed at 20 μL/well to a 384-well microplate, 2 μL of the supernatant of each well (diluted as necessary) of the plate after centrifugation was added, and then the mixture was reacted at room temperature for about 30 minutes. The amount of luminescence of the plate after the reaction was measured with a microplate reader. A 50% HIV inhibitory concentration (EC50) was determined from a concentration-dependent curve using the following 4 parameter logistic curve fitting model. y=A+((B−A)/(1+((C/x)^D))) • A=minimum rate of inhibition (negative control, 0%) • B=maximum rate of inhibition (positive control, 100%) • C=compound concentration at an inflection point • D=slope coefficient • x=compound concentration • y=rate of inhibition (%)
The degree of resistance (fold change (FC)) of each mutant strain was calculated according to the following expression. • FC=EC50 of the mutant strain/EC50 of the wild strain (Results)

For `CCN1C(=O)c2c(O)c(=O)c(C(=O)NCc3cccc(Cl)c3F)cn2[C@H]2C[C@@H](COC)CC[C@H]21` [Compound I-014], the “FC (fold change, degree of resistance) = EC50 of the mutant strain/EC50 of the wild strain” value was 4.1.

tested on: HIV; assay: Test Example 1: Anti-HIV activity (MT-4 cells, CellTiter-Glo); assay type: cell-based; conditions: 4 days culture, CellTiter-Glo luminescence, read-out: EC50 (50% HIV inhibitory concentration)
Method: Test Example 1: Anti-HIV Activity
Serial dilutions of a test sample were prepared in a 384-well microplate by a dispensing machine. 6.25×10^4 cells/mL of a MT-4 cell suspension was dispensed at 20 μL/well to the plate containing the test sample. Then, an HIV virus solution was dispensed at 20 μL/well. The plate was mixed with a plate mixer and cultured for 4 days in a CO2 incubator. On day 4 of culture, CellTiter-Glo or CellTiter-Glo 2.0 was dispensed at 20 μL/well. The plate was reacted while being stirred with the plate mixer at room temperature for about 15 minutes. The amount of luminescence of the plate after the reaction was measured with a microplate reader. A 50% HIV inhibitory concentration (EC50) was determined from a concentration-dependent curve using the following 4 parameter logistic curve fitting model. y=A+((B−A)/(1+((C/x)^D))) • A=minimum rate of inhibition (negative control, 0%) • B=maximum rate of inhibition (positive control, 100%) • C=compound concentration at an inflection point • D=slope coefficient • x=compound concentration • y=rate of inhibition (%) (Results)

First: CCN1C(=O)c2c(O)c(=O)c(C(=O)NCc3cccc(Cl)c3F)cn2[C@H]2CC(F)(F)C[C@H]21 [Compound I-001]
Second: CCN1C(=O)c2c(O)c(=O)c(C(=O)NCc3cccc(Cl)c3F)cn2[C@H]2[C@H](COC)CC[C@H]21 [Compound I-013]
The EC50 of the first is 1.8-fold lower: 1.4 nM for the first, 2.5 nM for the second. The first is the more potent here.

same assay, conditions: Human immunodeficiency virus 1, MT4, 96 h, 4 days culture, CellTiter-Glo luminescence, read-out: EC50 (50% HIV inhibitory concentration)

First: CCN1C(=O)c2c(O)c(=O)c(C(=O)NCc3c(F)cc(F)cc3F)cn2[C@H]2CC(F)(F)C[C@H]21 [Compound I-002]
Second: CCN1C(=O)c2c(O)c(=O)c(C(=O)NCc3c(F)cc(F)cc3F)cn2[C@H]2CCC(F)(F)C[C@H]21 [Compound I-012]
The EC50 of the first is 1.6-fold higher: 1.5 nM for the first, 0.93 nM for the second. The second is the more potent here.

Compared with `CN1C(=O)c2c(O)c(=O)c(C(=O)NCc3nccc(Cl)c3F)cn2[C@H]2CCCC[C@H]21` [Compound I-004], `CN1C(=O)c2c(O)c(=O)c(C(=O)NCc3cccc(Cl)c3F)cn2[C@H]2CCCC[C@H]21` [Compound I-028] is 2.8-fold lower in EC50: 3.3 nM for the first, 1.2 nM for the second. The second is the more potent here.

`CCN1C(=O)c2c(O)c(=O)c(C(=O)NCc3c(F)cc(F)cc3F)cn2[C@@H]2[C@H]1CCCC2(F)F` [Compound I-006] and `CCN1C(=O)c2c(O)c(=O)c(C(=O)NCc3c(F)cc(F)cc3F)cn2[C@H]2CCCC(F)(F)[C@H]21` [Compound I-008] are within 1.5-fold of each other in EC50: 0.63 nM for the first, 0.52 nM for the second.

First: CCN1C(=O)c2c(O)c(=O)c(C(=O)NCc3cccc(Cl)c3F)cn2[C@H]2CCCC(F)(F)[C@H]21 [Compound I-007]
Second: CCN1C(=O)c2c(O)c(=O)c(C(=O)NCc3cccc(Cl)c3F)cn2[C@H]2CCC(F)(F)C[C@H]21 [Compound I-011]
The EC50 of the first is 13-fold lower: 0.7 nM for the first, 9 nM for the second.

Compared with `CCN1C(=O)c2c(O)c(=O)c(C(=O)NCc3c(F)cc(F)cc3F)cn2[C@H]2[C@@H]3CC[C@@H](C3)[C@H]21` [Compound I-010], `CCN1C(=O)c2c(O)c(=O)c(C(=O)NCc3c(F)cc(F)cc3F)cn2[C@H]2CCC[C@H]21` [Compound I-030] is 2-fold lower in EC50: 5.2 nM for the first, 2.6 nM for the second.

Going from `CCN1C(=O)c2c(O)c(=O)c(C(=O)NCc3cccc(Cl)c3F)cn2[C@H]2C[C@@H](COC)CC[C@H]21` [Compound I-014] to `CCN1C(=O)c2c(O)c(=O)c(C(=O)NCc3cccc(Cl)c3F)cn2[C@H]2C[C@@H](COC)C[C@H]21` [Compound I-015], the EC50 falls from 3.8 nM to 2.5 nM (1.5-fold).

First: CN1C(=O)c2c(O)c(=O)c(-c3nnc(Cc4ccc(F)cc4F)s3)cn2[C@H]2CCCC[C@H]21 [Compound I-018]
Second: CCN1C(=O)c2c(O)c(=O)c(-c3nnc(Cc4ccc(F)cc4F)s3)cn2[C@H]2CCCC(F)(F)[C@H]21 [Compound I-021]
The EC50 of the first is 1.6-fold lower: 2.3 nM for the first, 3.6 nM for the second.

Going from `CCN1C(=O)c2c(O)c(=O)c(-c3nnc(Cc4ccc(F)cc4F)s3)cn2[C@H]2[C@@H]3CC[C@@H](C3)[C@H]21` [Compound I-019] to `CCN1C(=O)c2c(O)c(=O)c(-c3nnc(Cc4ccc(F)cc4F)s3)cn2[C@H]2CCC(F)(F)C[C@H]21` [Compound I-023], the EC50 falls from 8.2 nM to 4.6 nM (1.8-fold). The second is the more potent here.

`CCN1C(=O)c2c(O)c(=O)c(C(=O)NCc3cccc(Cl)c3F)cn2[C@H]2CCCC[C@H]21` [Compound I-024] and `CCN1C(=O)c2c(O)c(=O)c(C(=O)NCc3cccc(Cl)c3F)cn2[C@H]2CCC[C@H]21` [Compound I-029] are within 1.5-fold of each other in EC50: 1.9 nM for the first, 2.2 nM for the second.

Going from `CCN1C(=O)c2c(O)c(=O)c(C(=O)NCc3ccc(F)cc3F)cn2[C@H]2CCCC[C@H]21` [Compound I-025] to `CCN1C(=O)c2c(O)c(=O)c(C(=O)NCc3c(F)cc(F)cc3F)cn2[C@H]2CCCC[C@H]21` [Compound I-026], the EC50 falls from 2.1 nM to 1.3 nM (1.6-fold). The second is the more potent here.

`CN1C(=O)c2c(O)c(=O)c(C(=O)NCc3c(F)cc(F)cc3F)cn2[C@H]2CCCC[C@H]21` [Compound I-027] was tested, and the EC50 was 0.7 nM.
